The values that follow come from patent US10738056B2 (Aduro BioTech, Inc., priority 2017, dated 2020).

Assay [1] concerns cGAS/STING pathway in THP1 cells. The assay is described as follows: THP1 cell-based cGAS/STING pathway activity assay (IRF-3-linked luciferase reporter). Conditions: Homo sapiens, THP-1. An excerpt:
A cellular assay can be used to assess the compounds of the invention for their ability to inhibit the cGAS/STING pathway. Cells that express a luciferase-based reporter that is linked to IRF-3 activation are used to determine response as a function of compound concentration. Such an assay is described in Vincent et al., Nature Communications 2017, 8(1):750, doi: 10.1038/s41467-017-00833-9.
A cellular assay can be used to assess the compounds of the invention for their ability to inhibit the cGAS/STING pathway. Cells that express a luciferase-based reporter that is linked to IRF-3 activation are used to determine response as a function of compound concentration. Such an assay is described in Vincent et al., Nature Communications 2017, 8(1):750, doi: 10.1038/s41467-017-00833-9. Compounds of the invention were assessed using similar assay methods in a THP1 cell assay to generate IC50 values as provided in the following Table 16. In this table, activity level “A” indicates an IC50 value less than 20 μM, “B” indicates an IC50 value between 20 and 100 μM, and “C” indicates an IC50 value above the upper limit of the assay (100 μM), or where an IC50 value could not be generated from the data.
A general note: Reporter assays use an easily measured gene product as a stand-in for the process of interest.

Assay [2] has as its target Human cGAS amino acids 155-522 (Homo sapiens (Human), UniProt Q8N884). The assay is described as follows: cGAS biochemical activity assay (ATP remaining, Kinase-Glo Max luminescence). Conditions: human cGAS 155-522, ATP remaining (Kinase-Glo Max); read-out: cGAS IC50. (In general: Kinase-Glo measures the ATP left after a reaction by luminescence.)

Sequence of Human cGAS amino acids 155-522 (Q8N884 157-522): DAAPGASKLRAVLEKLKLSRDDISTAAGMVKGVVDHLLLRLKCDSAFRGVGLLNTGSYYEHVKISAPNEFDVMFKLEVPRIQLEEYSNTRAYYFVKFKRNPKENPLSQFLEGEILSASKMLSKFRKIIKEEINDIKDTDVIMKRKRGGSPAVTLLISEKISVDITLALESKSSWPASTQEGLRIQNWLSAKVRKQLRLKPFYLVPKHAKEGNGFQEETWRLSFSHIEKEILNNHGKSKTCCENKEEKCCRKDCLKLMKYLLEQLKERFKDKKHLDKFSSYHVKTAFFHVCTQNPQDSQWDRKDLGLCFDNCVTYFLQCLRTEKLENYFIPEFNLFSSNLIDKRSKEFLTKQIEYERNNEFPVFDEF

Consider `COc1cccc(S(=O)(=O)NC(=O)c2c(C)[nH]c3c(-c4ccccc4)c(C(F)(F)F)nn3c2=O)c1` [Compound A1125, N-((3-methoxyphenyl)sulfonyl)-5-methyl-7-oxo-3-phenyl-2-(trifluoromethyl)-4,7-dihydropyrazolo[1,5-a]pyrimidine-6-carboxamide], for which the IC50 (in general, the point on the concentration scale where inhibition reaches its midpoint) is 20 to 100 µM in assay [1] and less than 20 µM in assay [2]. The corresponding values for `Cc1[nH]c2c(-c3ccccc3)c(C(F)(F)F)nn2c(=O)c1-c1nc2c(OCC(N)=O)cccc2o1` [Compound C1122, 2-((2-(5-methyl-7-oxo-3-phenyl-2-(trifluoromethyl)-4,7-dihydropyrazolo[1,5-a]pyrimidin-6-yl)benzo[d]oxazol-4-yl)oxy)acetamide] are 20 to 100 µM and less than 20 µM. The corresponding values for `COc1cccc2oc(-c3c(N)[nH]c4c(-c5ccccc5)c(C(F)(F)F)nn4c3=O)nc12` [Compound C1085, 5-amino-6-(4-methoxybenzo[d]oxazol-2-yl)-3-phenyl-2-(trifluoromethyl)pyrazolo[1,5-a]pyrimidin-7(4H)-one] are more than 100 µM and less than 20 µM.

Consider `COCc1[nH]c2c(-c3ccccc3)c(C#N)nn2c(=O)c1-c1nc2c(OC)nccc2o1` [Compound C1246, 5-(methoxymethyl)-6-(4-methoxyoxazolo[4,5-c]pyridin-2-yl)-7-oxo-3-phenyl-4,7-dihydropyrazolo[1,5-a]pyrimidine-2-carbonitrile], for which the half-inhibitory concentration (IC50) in assay [1] was more than 100 µM; in assay [2], less than 20 µM. Take `Cc1[nH]c2c(-c3ccccc3)c(C(F)(F)F)nn2c(=O)c1C1=NC(C(=O)O)[C@H](C)O1` (stereo partly drawn) [Compound C1216, (5S)-5-methyl-2-(5-methyl-7-oxo-3-phenyl-2-(trifluoromethyl)-4,7-dihydropyrazolo[1,5-a]pyrimidin-6-yl)-4,5-dihydrooxazole-4-carboxylic acid]: the IC50 was more than 100 µM in assay [1] and less than 20 µM in assay [2]. For the compound `COc1cccc2oc(-c3c(CN(C)C)[nH]c4c(-c5ccccc5)c(C(F)(F)F)nn4c3=O)nc12` [Compound C1109, 5-((dimethylamino)methyl)-6-(4-methoxybenzo[d]oxazol-2-yl)-3-phenyl-2-(trifluoromethyl)pyrazolo[1,5-a]pyrimidin-7(4H)-one], the IC50 in assay [1] is more than 100 µM; in assay [2], less than 20 µM. In the case of `COc1cc(C(N)=O)cc2oc(-c3c(C)[nH]c4c(-c5ccccc5)c(C(F)(F)F)nn4c3=O)nc12` [Compound C1149, 4-methoxy-2-(5-methyl-7-oxo-3-phenyl-2-(trifluoromethyl)-4,7-dihydropyrazolo[1,5-a]pyrimidin-6-yl)benzo[d]oxazole-6-carboxamide], the IC50 was 20 to 100 µM in assay [1] and less than 20 µM in assay [2]. The corresponding values for `Cc1[nH]c2c(-c3ccccc3)c(C(F)(F)F)nn2c(=O)c1-c1nc2c(OC(C)C)cccc2o1` [Compound C1039, 6-(4-isopropoxybenzo[d]oxazol-2-yl)-5-methyl-3-phenyl-2-(trifluoromethyl)pyrazolo[1,5-a]pyrimidin-7(4H)-one] are more than 100 µM and less than 20 µM. Consider `COc1ccccc1-c1c(C(F)(F)F)nn2c(=O)c(-c3nc4c(OC)cccc4o3)c(C)[nH]c12` [Compound C1086, 6-(4-methoxybenzo[d]oxazol-2-yl)-3-(2-methoxyphenyl)-5-methyl-2-(trifluoromethyl)pyrazolo[1,5-a]pyrimidin-7(4H)-one], for which, in assay [2], the IC50 was more than 250 µM. On to `Cc1[nH]c2c(-c3ccccc3)c(C(F)(F)F)nn2c(=O)c1-c1nnc(C2CCN(S(C)(=O)=O)CC2)o1` [Compound D1053, 5-methyl-6-(5-(1-(methylsulfonyl)piperidin-4-yl)-1,3,4-oxadiazol-2-yl)-3-phenyl-2-(trifluoromethyl)pyrazolo[1,5-a]pyrimidin-7(4H)-one], for which, in assay [2], the IC50 was 20 to 250 µM. On the same count and under the same terms, then `COc1cc(F)c(F)cc1NC(=O)c1c(C)[nH]c2c(-c3ccccc3)c(C(F)(F)F)nn2c1=O` [Compound A1080, N-(4,5-difluoro-2-methoxyphenyl)-5-methyl-7-oxo-3-phenyl-2-(trifluoromethyl)-4,7-dihydropyrazolo[1,5-a]pyrimidine-6-carboxamide], with 20 to 250 µM; and `Cc1[nH]c2c(-c3ccccc3)c(C(F)(F)F)nn2c(=O)c1C(=O)Nc1ccccc1OC1CCCC1` [Compound A1044, N-(2-(cyclopentyloxy)phenyl)-5-methyl-7-oxo-3-phenyl-2-(trifluoromethyl)-4,7-dihydropyrazolo[1,5-a]pyrimidine-6-carboxamide], with 20 to 250 µM. Regarding `COc1cccc2oc(-c3c(C(=O)N(C)CC(=O)O)[nH]c4c(-c5ccccc5)c(C(F)(F)F)nn4c3=O)nc12` [Compound C1197, N-(6-(4-methoxybenzo[d]oxazol-2-yl)-7-oxo-3-phenyl-2-(trifluoromethyl)-4,7-dihydropyrazolo[1,5-a]pyrimidine-5-carbonyl)-N-methylglycine], the IC50 in assay [2] lay within 20 to 250 µM. Still for that read-out and setting: the result for `COc1cccc2oc(-c3c(C)[nH]c4c(-c5c(F)cccc5F)c(C(F)(F)F)nn4c3=O)nc12` [Compound C1133, 3-(2,6-difluorophenyl)-6-(4-methoxybenzo[d]oxazol-2-yl)-5-methyl-2-(trifluoromethyl)pyrazolo[1,5-a]pyrimidin-7(4H)-one] reads 20 to 250 µM. As for `COc1cccc2c1nc(-c1c(C)[nH]c3c(-c4ccccc4)c(C(F)(F)F)nn3c1=O)n2CCO` [Compound C1201, 6-(1-(2-hydroxyethyl)-4-methoxy-1H-benzo[d]imidazol-2-yl)-5-methyl-3-phenyl-2-(trifluoromethyl)pyrazolo[1,5-a]pyrimidin-7(4H)-one], the half-maximal inhibitory concentration (IC50) in assay [2] was 20 to 250 µM. Still for that read-out and setting: then `COc1cccc2oc(-c3c(C)[nH]c4c(-c5ccccc5C#N)c(C(F)(F)F)nn4c3=O)nc12` [Compound C1148, 2-(6-(4-methoxybenzo[d]oxazol-2-yl)-5-methyl-7-oxo-2-(trifluoromethyl)-4,7-dihydropyrazolo[1,5-a]pyrimidin-3-yl)benzonitrile], with 20 to 250 µM; and `COc1cccc2oc(-c3c(C4CCC(C(=O)O)CC4)[nH]c4c(-c5ccccc5)c(C(F)(F)F)nn4c3=O)nc12` (single isomer, unassigned) [Compound C1237, 4-(6-(4-methoxybenzo[d]oxazol-2-yl)-7-oxo-3-phenyl-2-(trifluoromethyl)-4,7-dihydropyrazolo[1,5-a]pyrimidin-5-yl)cyclohexane-1-carboxylic acid], with 20 to 250 µM.

Take `Cc1[nH]c2c(-c3ccccc3)c(C(F)(F)F)nn2c(=O)c1C(=O)Nc1ccccn1` [Compound A1017, 5-methyl-7-oxo-3-phenyl-N-(pyridin-2-yl)-2-(trifluoromethyl)-4,7-dihydropyrazolo[1,5-a]pyrimidine-6-carboxamide]: the IC50 in assay [2] is less than 20 µM.

As for `COCc1[nH]c2c(-c3ccccc3)c(C(F)(F)F)nn2c(=O)c1C(=O)Nc1ccccc1OC` [Compound A1042, 5-(methoxymethyl)-N-(2-methoxyphenyl)-7-oxo-3-phenyl-2-(trifluoromethyl)-4,7-dihydropyrazolo[1,5-a]pyrimidine-6-carboxamide], in assay [2], the IC50 fell in the range of 20 to 250 µM. With `Cc1[nH]c2c(-c3ccccc3)c(C(F)(F)F)nn2c(=O)c1C(=O)Nc1[nH]nc(C(F)(F)F)c1C(C)C` [Compound A1058, N-(4-isopropyl-3-(trifluoromethyl)-1H-pyrazol-5-yl)-5-methyl-7-oxo-3-phenyl-2-(trifluoromethyl)-4,7-dihydropyrazolo[1,5-a]pyrimidine-6-carboxamide], the IC50 in assay [2] fell in the range of 20 to 250 µM. Same read-out and setting: the result for `Cc1[nH]c2c(-c3ccccc3)c(C(F)(F)F)nn2c(=O)c1-c1n[nH]c(=O)o1` [Compound C1247, 5-(5-methyl-7-oxo-3-phenyl-2-(trifluoromethyl)-4,7-dihydropyrazolo[1,5-a]pyrimidin-6-yl)-1,3,4-oxadiazol-2(3H)-one] reads less than 20 µM. Same read-out and setting: the result for `Cc1[nH]c2c(-c3ccccc3)c(C(F)(F)F)nn2c(=O)c1C(=O)Nc1cccc(Cl)c1` [Compound A1030, N-(3-chlorophenyl)-5-methyl-7-oxo-3-phenyl-2-(trifluoromethyl)-4,7-dihydropyrazolo[1,5-a]pyrimidine-6-carboxamide] reads less than 20 µM; that for `COc1cccc2oc(-c3c(C(=O)N[C@@H](C)CO)[nH]c4c(-c5ccccc5)c(C(F)(F)F)nn4c3=O)nc12` [Compound C1196, (S)-N-(1-hydroxypropan-2-yl)-6-(4-methoxybenzo[d]oxazol-2-yl)-7-oxo-3-phenyl-2-(trifluoromethyl)-4,7-dihydropyrazolo[1,5-a]pyrimidine-5-carboxamide], less than 20 µM.

With `Cc1nnc(-c2c(C)[nH]c3c(-c4ccccc4)c(C(F)(F)F)nn3c2=O)o1` [Compound D1001, 5-methyl-6-(5-methyl-1,3,4-oxadiazol-2-yl)-3-phenyl-2-(trifluoromethyl)pyrazolo[1,5-a]pyrimidin-7(4H)-one], in assay [2], the IC50 was in the range of 20 to 250 µM. Consider `Cc1[nH]c2c(-c3ccccc3)c(C(F)(F)F)nn2c(=O)c1C(=O)Nc1ccccc1C#N` [Compound A1036, N-(2-cyanophenyl)-5-methyl-7-oxo-3-phenyl-2-(trifluoromethyl)-4,7-dihydropyrazolo[1,5-a]pyrimidine-6-carboxamide], for which, in assay [2], the IC50 is 20 to 250 µM.
